Data set [1] deals with Cryopreserved hepatocytes from male rats (Sprague Dawley). Nature of the data set: In vitro metabolism study in rat hepatocytes in suspension (GC-MS). To be noted: for Residual conc.: male, Sprague Dawley, rat, 4 h, 100 μM. As for the experimental part: In order to study in vitro metabolism in rat hepatocytes, Lilial™ and compounds of the present invention may be incubated in the presence of rat hepatocytes in suspension. Reduction in the concentration of Lilial™ and the compounds of the present invention and formation of any of the corresponding benzoic acid derivatives may be analysed by GC-MS.
Cryopreserved hepatocytes from male rats (Sprague Dawley; Lifetechnologies) were defrozen, washed in Cyropreserved Hepatocytes Recovery Medium (CHRM; Lifetechnologies) and suspended in Williams E Medium (WEM; Lifetechnologies). Lilial™, or the compounds of the present invention (final concentration: 100 μM) were added to the cells (1×10^6 viable cells/ml) and suspensions were incubated up to 4 hours at 37° C. on a shaker in duplicate. Metabolism of testosterone was monitored as positive control. Decrease of the test compounds and formation of the corresponding benzoic acid derivative was determined by GC-MS analysis of methyl esters formed after derivatisation with trimethylsilyl diazomethane (Sigma-Aldrich) in methanol. The test compounds react with diazomethane yielding a methyl ketone which was used for the quantification of Lilial™ and the compound of formula (I). Metabolism was stopped with ice cold 1 M HCl, samples were extracted with tert-butyl methyl ether (MTBE) and analysed by GC-MS. Incubations containing testosterone as control were also stopped with ice cold 1 M HCl, centrifuged to separate the cells, filtrated and the decrease of testosterone analysed by LC-MS.

In data set [2] the test system is reproductive organs of male rats. To be noted: rat, in vivo; cited from earlier work.
Another data set deals with mice. To be noted: mouse, in vivo; cited from earlier work.
The subject of a further data set is primates. To be noted: cited from earlier work.
The next data set deals with guinea-pigs. To be noted: guinea pig, in vivo; cited from earlier work.
Data set [3] deals with reproductive organs of dogs. The settings on record: dog, in vivo; cited from earlier work.

Results on 4 compounds are retold here after patent US10443018B2, “Phenyl based compounds substituted with aldehyde moieties and their use in perfumery” (GIVAUDAN SA, priority 2014, dated 2019).

Compound `Cc1ccc(CCC=O)c(CC(C)C)c1` registered a Residual conc. in data set [1] of 0 µM.
The compound `Cc1cc(CCC=O)cc(CC(C)C)c1` [Compound 1, 3-(3-Isobutyl-5-methylphenyl)propanal] returned a Residual conc. in data set [1] of 1.5 µM.
As for `CC(C=O)Cc1ccc(C(C)(C)C)cc1` (stereo not drawn) [Lilial, 3-(4-tert-butylphenyl)-2-methylpropanal], the “toxic effects on the reproductive organs” value in data set [2] and in data set [3] was “toxic effects” throughout. The “effects in toxicity studies” value with mice, with primates and in the data set with guinea-pigs was “No effects” throughout. The compound further came in with a Residual conc. in data set [1] of 0 µM.
As to `C[C@]12CC[C@H]3[C@@H](CCC4=CC(=O)CC[C@@]43C)[C@@H]1CC[C@@H]2O` [testosterone], the “decrease of testosterone (positive control)” value in data set [1] (rat hepatocytes, LC-MS) was “rapid decrease”.
